System: pancreatin (Panzytrat 40,000)
Method: Both media are from the company Biorelevant®, Ltd. in Great Britain. In addition, in some experiments porcine pancreas is added (Panzytrat® 40,000, Fa. Allergan).
The pancreatin is used in the form of the commercially available product Panzytrat® 40,000 from the Allergan company. The whole mixture is stirred on a hot plate at 50° C.; the course of the reaction is determined and monitored by continuously recording the acid number over time.

Substance	cleavage by pancreatin to the free 3-hydroxybutyric acid
3-BHB-di-diglycerol ester	cleaved by pancreatin to the free 3-hydroxybutyric acid
3-BHB-tri-diglycerol ester	cleaved by pancreatin to the free 3-hydroxybutyric acid
3-BHB-mono-diglycerol ester	cleaved by pancreatin to the free 3-hydroxybutyric acid
